The test system of this experiment is CT26 tumors. Kind of experiment: Syngeneic colon cancer model, CT26 tumors in JW-KLH-immunized BALB/C mice. Particulars: 200 μL i.p. days 2-17; compared with PBS. It is filed as in vivo. Here is the method:
FIG. 5 illustrates inhibition of tumor growth in syngenic mice mediated by adaptor-targeted antibodies. […] Mice (six per group) were treated between days 2 and 17 with 200 μL i.p. injections of PBS alone, 60 μg/mL SCS-873 in PBS, or 27.5 μg/mL SCS-397 in PBS. Mean tumor volumes±SD were determined at 3-day intervals from 12 to 30 days post-grafting. […] Mice (six per group) were treated between days 2 and 17 with 200 μL i.p. injections of PBS alone, 77 μg/mL cRGD-dk in PBS, or 42.5 μg/mL cRGD in PBS. Mean tumor volumes±SD were determined at 3-day intervals from 12 to 30 days post-grafting. […] Mean tumor volumes±SD were determined at 3-day intervals from 12 to 24 days post-grafting. […] Mean tumor volumes±SD were determined at 3-day intervals from 12 to 24 days post-grafting.
On day 65, JW-KLH-immunized BALB/C mice were sorted (6 groups with 6 animals each) to form matched anti-JW titer groups and were inoculated s.c. into right flanks with 0.1 mL (2×10^5 cells/mouse) of CT26 cell suspension in PBS (day 0 for tumor model). […] Tumor volumes of treated animals were measured over the skin in two dimensions using a slide caliper every third day starting on day 12, and the tumor volume was calculated according to the following formula, ½(width)^2×length. Toxicity was monitored by determining the body weight of mice once a week. […]

Regarding cyclo(Arg-Gly-Asp-D-Phe-Lys) [cRGD], the “growth of CT26 tumors (in words)” value is “no more effective than treatment with PBS”.

Source of the values: patent US9132188B2, “Chemically Programmed Vaccination” (The Scripps Research Institute, priority 2009, dated 2015).
